Experiments:
Fusarium oxysporum = assay type: cell-based
Septoria tritici = assay type: cell-based
Rhizoctonia solani = assay type: cell-based
Phakopsora pachyrhizi = test: Glasshouse trial: protective control of soy bean rust on soy beans; assay type: in vivo; details: soy bean seedlings sprayed with 1000 ppm, inoculated 1 day later, assessed after fourteen days; untreated plants 90% infected
Method: The spray solutions were prepared in several steps: The stock solution were prepared: a mixture of acetone and/or dimethylsulfoxide and the wetting agent/emulsifier Wettol, which is based on ethoxylated alkylphenoles, in a relation (volume) solvent-emulsifier of 99 to 1 was added to 25 mg of the compound to give a total of 10 ml. Water was then added to total volume of 100 ml. This stock solution was diluted with the described solvent-emulsifier-water mixture to the given concentration. Leaves of pot-grown soy bean seedlings were sprayed to run-off with an aqueous suspension, containing the concentration of active ingredient or their mixture as described below. The plants were allowed to air-dry. […] Then the plants were inoculated with spores of Phakopsora pachyrhizi. […] The extent of fungal attack on the leaves was visually assessed as % diseased leaf area.

Rhynchosporium secalis = assay type: cell-based
Cochliobolus miyabeanus = test: Microtiter test, brown spot on rice (Cochmi); assay type: cell-based; details: vs compound-free control (100%), 405 nm, 7 days after inoculation, concentration not given
Corynespora cassiicola = assay type: cell-based
Fusarium culmorum = assay type: cell-based
Septoria glycines = assay type: cell-based
Pyriculana oryzae = assay type: cell-based; details: Pyrior; vs compound-free control (100%); 405 nm, 7 days after inoculation; concentration not given
Cercospora sojina = assay type: cell-based
Alternaria solani = assay type: cell-based
Phytophthora infestans = assay type: cell-based; details: Phytin; pea juice-based or DDC medium; vs compound-free control (100%); 405 nm, 7 days after inoculation; concentration not given
Fusarium poae = assay type: cell-based
[1] = tested on: Colletotrichum lagenarium; assay type: cell-based
Colletotrichum truncatum = assay type: cell-based
Pyrenophora teres = assay type: cell-based
Botryis cinerea = assay type: cell-based; details: Botrci; vs compound-free control (100%); 405 nm, 7 days after inoculation; concentration not given

N#CC1=C(C#N)SC(C#N)=C(C#N)S1 [compound I.A, 2,3,5,6-tetracyano-[1,4]dithiine]
relative growth in % of the pathogen (Fusarium oxysporum): 0%
relative growth in % of the pathogen (Septoria tritici): 0%
relative growth in % of the pathogen (Rhizoctonia solani): 0%
infection (% diseased leaf area) (Phakopsora pachyrhizi): 4%
relative growth in % of the pathogen (Rhynchosporium secalis): 0%
relative growth in % of the pathogen (Cochliobolus miyabeanus): 0%
relative growth in % of the pathogen (Corynespora cassiicola): 1%
relative growth in % of the pathogen (Fusarium culmorum): 0%
relative growth in % of the pathogen (Septoria glycines): 0%
relative growth in % of the pathogen (Pyriculana oryzae): 0%
relative growth in % of the pathogen (Cercospora sojina): 0%
relative growth in % of the pathogen (Alternaria solani): 0%
relative growth in % of the pathogen (Phytophthora infestans): 0%
relative growth in % of the pathogen (Fusarium poae): 0%
relative growth in % of the pathogen [1]: 0%
relative growth in % of the pathogen (Colletotrichum truncatum): 0%
relative growth in % of the pathogen (Pyrenophora teres): 0%
relative growth in % of the pathogen (Botryis cinerea): 1%

Reference: US20140135217A1, “Use of Tetracyanodithiines as Fungicides” (BASF SE, priority 2011, published 2014)
